Measured values: patent publication US6387893B1, “Spirotricyclic substituted azacycloalkane derivatives and uses thereof” (Merck & Co., Inc., priority 1999, dated 2002)
Structures can show the parent of a compound that is named as a salt.

Experiments:
[1] = molecular target: T1, human alpha 1a adrenergic receptor (Homo sapiens, UniProt P35348); experiment: Screening assay: alpha 1a adrenergic receptor binding ([125I]-HEAT competition); details: membranes from stably transfected human alpha 1a cell line (ATCC CRL 11140), 100 pM [125I]-HEAT
T1 sequence (P35348 1-466): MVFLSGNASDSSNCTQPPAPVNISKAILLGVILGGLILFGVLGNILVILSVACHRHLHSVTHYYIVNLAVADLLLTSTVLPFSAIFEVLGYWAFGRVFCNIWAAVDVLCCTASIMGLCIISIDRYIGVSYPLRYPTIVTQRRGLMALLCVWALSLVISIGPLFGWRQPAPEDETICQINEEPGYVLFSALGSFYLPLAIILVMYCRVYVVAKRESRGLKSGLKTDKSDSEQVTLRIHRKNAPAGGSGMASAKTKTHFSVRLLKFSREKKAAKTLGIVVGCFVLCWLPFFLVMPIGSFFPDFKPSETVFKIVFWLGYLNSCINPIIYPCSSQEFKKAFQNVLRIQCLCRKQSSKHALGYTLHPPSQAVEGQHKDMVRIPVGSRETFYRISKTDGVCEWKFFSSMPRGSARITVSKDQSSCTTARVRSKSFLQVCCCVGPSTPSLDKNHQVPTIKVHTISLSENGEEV
Description: Screening Assay: Alpha 1a Adrenergic Receptor Binding
Membranes prepared from the stably transfected human alpha 1a cell line (ATCC CRL 11140) were used to identify compounds that bind to the human alpha 1a adrenergic receptor. These competition binding reactions (total volume=200 μl) contained 50 mM Tris-HCl pH. 7.4, 5 mM EDTA, 150 mM NaCl, 100 pM [^125I]-HEAT, membranes prepared from the alpha 1a cell line and increasing amounts of unlabeled ligand. Reactions were incubated at room temperature for one hour with shaking. Reactions were filtered onto Whatman GF/C glass fiber filters with a Inotec 96 well cell harvester. Filters were washed three times with ice cold buffer and bound radioactivity was determined (Ki).

Structure (SMILES) | melting point [°C] | Ki [1] [nM]
COCC1=C(C(=O)OC)[C@H](c2ccc(F)c(F)c2)N(C(=O)NCCCN2CCC3(CC2)c2ccccc2-c2cccnc23)C(=O)N1 (as salt: hydrochloride) [Example 53, 1,2,3,6-tetrahydro-1-[3-((spiro(9H-indeno[2,1-b]pyridine)-9,4′-piperidin)-1′-yl)propylaminocarbonyl]-5-methoxycarbonyl-4-methoxymethyl-6(S)-(3,4-difluorophenyl)-2-oxopyrimidine] | 201 to 209 | –
O=C(NCCCN1CCC2(CC1)c1ccccc1CCc1ccccc12)N1C(=O)OC[C@@H]1c1ccc(F)c(F)c1 (as salt: hydrochloride) [Example 57, 1′-{3-[4(S)-(3,4-difluorophenyl)-2-oxooxazolidin-3-carbonylamino]-propyl}-(10,11-dihydrospiro-5H-dibenzo[a,d]cycloheptene)-5,4′-piperidine] | 146 to 177 | –
O=C1OC[C@H](c2ccc(F)c(F)c2)N1CCCCCN1CCC2(CC1)c1ccccc1CCc1ccccc12 (as salt: hydrochloride) [Example 58, 1′-{5-[4(S)-(3,4-difluorophenyl)-2-oxooxazolidin-3-yl]-pentyl}-(10,11-dihydrospiro-5H-dibenzo[a,d]cycloheptene)-5,4′-piperidine] | 232 to 236 | –
O=C(NCCCN1CCC2(CC1)c1ccccc1Oc1ccccc12)N1C(=O)OC[C@@H]1c1ccc(F)c(F)c1 [Example 35, 1′-{3-[(4S)-(3,4-Difluorophenyl)-2-oxooxazolidin-3-carbonylamino]propyl}spiroxanthene-9,4′-piperidine] | 138 to 139 | < 20
